Reference: patent US8802235B2, “Drug and imaging agent delivery compositions and methods” (priority 2012, dated 2014)
Read-outs that look alike come from different tables or passages of the source.

Tests used:
A2058 cells = assay: In vitro cytotoxicity (resazurin blue), A2058; assay type: cell-based, human; settings: read-out: IC50s A2058
Procedure: (§1) B16F10 (lymphatically metastatic murine melanoma), MDA-MB-231 (human breast cancer), and HUVEC (normal human endothelial) cell lines, were maintained in Dulbecco's modified Eagle's medium (DMEM) supplemented with 1% L-Glutamine and 10% bovine growth serum in 5% CO2 atmosphere. The HER2-expressing murine breast cancer cell line, 4T1.2 Neu was maintained in DMEM supplemented with 1% L-Glutamine, 10% bovine growth serum, and 500 μg/mL of G418 (geneticin) in 5% CO2 atmosphere. The lymphatically metastatic human melanoma cell line, A2058 was maintained in low sodium bicarbonate (1.5 g/L) containing DMEM supplemented with 1% L-Glutamine, 10% bovine growth serum in 5% CO2 atmosphere.
(§2) Prior to cell growth inhibition studies, cells were trypsinized and seeded at 3000 cells/well into 96-well tissue culture plates. After 24 hours, geldanamycin, 17-DMAG, 17-AAG, 17-HEAG, Star-GA (GA basis), or melphalan hydrochloride dilutions in 1×PBS (Fisher BioReagents, pH 7.4) with up to 3% DMSO (final well concentration, for the highest drug concentration) were added to the B16F10, A2058, HUVEC, 4T1.2 Neu, or MDA-MB-231 cells (n=8 or 12, 10 μL/well, 8 or 6 concentrations 10^−10 to 10^−3 M, respectively). Solutions of 10% trichloracetic acid was used as a negative control, media was used as a positive control, and 3% DMSO was used as an additional control (n=8 or 12, 10 μL/well). At 72 h post addition, 10 μL of resazurin blue in PBS was added (5 μM final concentration) to each well. After 3 hours, well fluorescence was measured (λex/λem=560/590 nm) (SpectraMax Gemini, Molecular Devices). IC50s were determined using the nonlinear regression curve fit of a one-site competition (GraphPad Prism 10).

4T1.2 Neu cells = assay: In vitro cytotoxicity (resazurin blue), 4T1.2 Neu; assay type: cell-based, murine; settings: 72 h, Star-GA on GA basis, read-out: IC50s 4T1.2 Neu
Procedure: as §1, §2

B16F10 cells = assay: cells; assay type: cell-based, murine; settings: for IC50: read-out: IC50s B16F10
Procedure: as §1, §2

HUVEC cells = assay: In vitro cytotoxicity (resazurin blue), HUVEC; assay type: cell-based, human
Procedure: as §1, §2

[1] = 17-DMAG i.v.; cited from earlier work
[2] = Metastatic analysis of axillary lymph nodes by nodal volume and rtPCR; settings: one mouse
Procedure: The metastatic state of the 4T1.2 Neu tumor model post treatment was assessed by axillary lymph node volume and the nodal HER 2 expression.
The total RNAs from the frozen lymph node samples were extracted using TriZol reagent (Invitrogen). The first-strand cDNA was synthesized using the Omniscript-RT Kit (QIAGEN, Valencia, Calif.). Primers for the Erbb2 (HER2 RT^2 qpCR primer assay, proprietary primer sequence, QIAGEN) and 18S housekeeping gene (forward: 5′-[sequence]-3′ reverse: 5′-[sequence]-3′) (IDT Inc, Coralville, Iowa) were used. The real-time PCR, in a reaction volume of 25 μL, was performed using the SYBR Green Supermix kit with the Bio-Rad iQ5 system (Hercules, Calif.).
During the lymph node harvesting, gross visualization of the organs was made to identify any obvious signs of metastases, growths, or toxicities associated with any of the treatments.

4T1.2 Neu tumors = assay: Anticancer efficacy in 4T1.2 Neu tumor bearing mice; assay type: in vivo; settings: 17-DMAG i.v. 10 mg/kg, Star-GA s.c. 45 mg/kg
Text: During cell preparation of the 4T1.2 Neu cells for implantation, G418 free media was used. Prior to tumor implantation, the hair surrounding the right upper portion of the mouse's chest was removed with depilatory cream. […].
Seven week old (18-22 g) female Balb/c mice purchased from Jackson Laboratory (Bar Harbor, Me.) were used in this study. On Day 7, when tumors reached 100-250 mm^3, mice were randomly divided into four treatment groups, consisting of no treatment (n=7), 60% […] (n=5), 17-DMAG (n=7), and Star-GA (n=8). The 17-DMAG was dosed at 10 mg/kg i.v. as a 1:1 sterile DMSO:PBS solution. Star-GA was dosed at 45 mg/kg (17-HEAG basis, 15% loading, 300 mg/kg Star-GA conjugate), in sterile 35% DMSO and 65% PBS, which was divided into two peritumoral injections on either side of the mammary tumor. Finally, the 60% […] was dosed at an equivalent star polymer concentration used for the 45 mg/kg Star-GA (255 mg/kg 60% […]), which was divided into two peritumoral injections onto either side of the mammary tumor. Tumor volumes were monitored and reported every two days (FIG. 33).
To minimize the occurrence of necrotic tails upon dosing 17-DMAG, as observed in the B16F10 in vivo study described in the previous section, 17-DMAG was dosed at 10 mg/kg i.v. in a 1:1 sterile DMSO:PBS solution rather than 15 mg/kg in 100% DMSO.

B16F10 tumors = assay type: in vivo; settings: for B16F10 tumor response: melphalan i.v. 5 mg/kg, 17-DMAG i.v. 15 mg/kg, Star-GA s.c. 15 mg/kg DMAG equivalent, polymer s.c. equivalent dose, vs non-treated
Procedure: . The tumors were measured and recorded, the volumes were calculated using the equation: Tumor Volume (mm^3)=0.52×(width)^2×length. When the B16F10 tumors reached 200-350 mm^3 (ca. Days 6-9), mice were randomly divided into five treatment groups: melphalan (i.v., n=5), 17-DMAG (i.v., n=4), star polymer (s.c., n=6), Star-GA (s.c., n=7), or no treatment (n=4) (FIG. 30).
Mice in the melphalan treatment group were injected once with melphalan (5 mg/kg) intravenously via the tail veil under isoflurane anesthesia. The formulation used to treat mice bearing B16F10 tumors was modified slightly from the product insert for ALKERAN (melphalan hydrochloride) for injections into humans. Melphalan was dissolved in concentrated hydrochloric acid (35-38%) to give a 15 mg/mL solution. The melphalan solution was then aliquoted into vials to give 0.75 mg melphalan/vial, and was dried using a speedvac concentrator (Labconoco) for 1.5 hours at 35° C. followed by 1 hour at ambient temperature. The vials containing dry melphalan hydrochloride were sealed and placed at −20° C. until further use. The reconstituted solution was prepared by first pre-sterilizing propylene glycol, 95% ethanol, and 0.02 g/mL sodium citrate solution, using a sterile syringe fitted with a 0.22 μm sterile filter (Millex GP PES membrane sterile filter, Millipore) into a sterile falcon tube. Then the reconstituted solution was prepared by combining 6 mL sterile propylene glycol, 0.52 mL sterile ethanol (95%), and 3.48 mL sodium citrate solution, and the solution was mixed well and filtered a second time with at 0.22 μm sterile filter. Immediately prior to injection, the 150 μL of the sterile reconstituted solution was rapidly added to the melphalan hydrochloride, the vial was immediately shaken vigorously until dissolved, followed by the rapid addition of 150 μL of sterile saline yielding a 2.5 mg/mL melphalan solution. The melphalan was dosed within 10 to 15 minutes after reconstitution to minimize degradation.
17-DMAG was dissolved in sterile DMSO and administered i.v. via the tail vein at a dose of 15 mg/kg (MTD). […]

MDA-MB-231 cells = assay: In vitro cytotoxicity (resazurin blue), MDA-MB-231; assay type: cell-based, human; settings: 72 h, Star-GA on GA basis, read-out: IC50s MDA-MB-231
Procedure: as §1
Prior to cell growth inhibition studies, cells were trypsinized and seeded at 3000 cells/well into 96-well tissue culture plates. […] After 3 hours, well fluorescence was measured (λex/λem=560/590 nm) (SpectraMax Gemini, Molecular Devices). IC50s were determined using the nonlinear regression curve fit of a one-site competition (GraphPad Prism 10).

[3] = test system: MDA-1986 human head and neck squamous cell carcinoma; assay: Head and neck tumor model, efficacy of sugar-NO1; assay type: in vivo, female nude mice
MDA-1986 cells [4] = assay: Cell growth inhibition (resazurin blue), MDA-1986; assay type: cell-based, human; settings: 72 hours
Procedure: (§3) Cell growth inhibition was determined in 96-well plates (3,000 cells/well in 100 μL, 12 replicates/sample) using highly invasive human breast cancer cells, MDA-MB-231, non-metastatic human breast cancer cells, MDA-MB-468, and highly invasive human head and neck squamous cell cancer cells positive for epithelia growth factor receptor, MDA-1986. Drug or conjugate solutions were applied after 24 hours, and 72 hours post-addition, resazurin blue in 10 μL of PBS was applied to each well (final concentration 5 μM).

MDA-MB-468 cells = assay: Cell growth inhibition (resazurin blue), MDA-MB-468; assay type: cell-based, human; settings: 72 hours
Procedure: as §3

MDA-1986 cells [5] = assay: Nitric oxide release (Griess) in cell culture with MDA-1986 cells; assay type: cell-based, human
Procedure: The fluorescence intensity was measured between 520 and 550 nm using a fluorescence microplate reader.
The concentration of nitrite, the stable breakdown product of gaseous nitric oxide, was measured using Griess assay as an indirect measurement of nitric oxide concentration in cell culture media. The assay is based on the reaction between sulfanilamide, N-1-napthyethylenediamine dihydrochloride and nitrite, under acidic conditions to produce a […] azo compound.

[6] = cited from earlier work
[7] = 72 h; Star-GA on GA basis; read-out: IC50s HUVEC

SMILES: C=CCNC1=C2C[C@@H](C)C[C@H](OC)[C@H](O)[C@@H](C)/C=C(\C)[C@H](OC(N)=O)[C@@H](OC)/C=C\C=C(/C)C(=O)NC(=CC1=O)C2=O [17-AAG, 17-allylamino-17-demethoxygeldanamycin]
- IC50 (A2058 cells; 72 h, Star-GA on GA basis): 53 nM
- IC50 (4T1.2 Neu cells): 315 nM
- IC50 (B16F10 cells; 72 h, Star-GA on GA basis): 825 nM
- IC50 (HUVEC cells; [7]): 64 µM

SMILES: CO[C@H]1/C=C\C=C(/C)C(=O)NC2=CC(=O)C(NCCN(C)C)=C(C[C@@H](C)C[C@H](OC)[C@H](O)[C@@H](C)/C=C(\C)[C@@H]1OC(N)=O)C2=O [17-DMAG, 17-dimethylaminoethylamino-17-demethoxygeldanamycin]
- MTD [1]: 15 mg/kg
- gross visualization of the organs [2]: appeared to have liver metastases
- IC50 (A2058 cells; 72 h, Star-GA on GA basis): 44 nM
- IC50 (4T1.2 Neu cells): 296 nM
- IC50 (B16F10 cells; 72 h, Star-GA on GA basis): 250 nM
- increase in in vitro toxicity in comparison to melphalan (B16F10 cells; B16F10 cell line): 400 fold
- survival (4T1.2 Neu tumors): neither 17-DMAG nor star-GA treatments exhibited an increase in survival
- 4T1.2 Neu tumor response compared to non-treated mice (4T1.2 Neu tumors; polymer 255 mg/kg): no statistical significances
- physical signs of toxicities (B16F10 tumors; B16F10 study doses): signs of tail necrosis
- B16F10 tumor response (B16F10 tumors): did not exhibit statistically significant tumor growth inhibition
- IC50 (MDA-MB-231 cells): 189 nM
- IC50 (HUVEC cells; [7]): 29 µM

SMILES: CCOC(=O)N1CCN(/[N+]([O-])=N/Oc2ccc([N+](=O)[O-])cc2[N+](=O)[O-])CC1 [JS-K, O^2-(2,4-Dinitrophenyl) 1-[(4-ethoxycarbonyl)piperazin-1-yl]diazen-1ium-1,2-diolate]
- disease condition (modified RECIST), animal No. 1 ([3]; 10 mg/kg on NO prodrug basis): PD (PD = Progressive Disease (>30% tumor growth))
- disease condition (modified RECIST), animal No. 2 ([3]; 10 mg/kg on NO prodrug basis): Necrosis
- disease condition (modified RECIST), animal No. 3 ([3]; 10 mg/kg on NO prodrug basis): PD (PD = Progressive Disease (>30% tumor growth))
- disease condition (modified RECIST), animal No. 4 ([3]; 10 mg/kg on NO prodrug basis): PD (PD = Progressive Disease (>30% tumor growth))
- disease condition (modified RECIST), animal No. 5 ([3]; 10 mg/kg on NO prodrug basis): Necrosis
- disease condition (modified RECIST), animal No. 6 ([3]; 10 mg/kg on NO prodrug basis): PD (PD = Progressive Disease (>30% tumor growth))
- tumor size ([3]; JS-K i.v. six weeks after tumor cell implantation, sugar-NO1 s.c. same time frame, 10 mg/kg): approximately 1000 mm^3
- animals euthanized ([3]; within 7 weeks, tumor size exceeding 1000 mm^3 or necrosis of injection site on the tail): 100%
- IC50 (MDA-1986 cells [4]): 16 ± 2 µM
- IC50 (MDA-MB-468 cells): 42 ± 4 µM

SMILES: CC1CN([N+]([O-])=NOc2ccc([N+](=O)[O-])cc2[N+](=O)[O-])CCN1CCO (stereo not drawn) [NO2, O^2-(2,4-Dinitrophenyl) 1-[[4-(2-hydroxy)ethyl]-3-methylpiperazin-1-yl]diazen-1-ium-1,2-diolate]
- IC50 (MDA-1986 cells [4]): 57 ± 6 µM
- IC50 (MDA-MB-468 cells): 27 ± 3 µM
- Release half-life (MDA-1986 cells [5]): 9.0 h

SMILES: COC1=C2C[C@@H](C)C[C@H](OC)[C@H](O)[C@@H](C)/C=C(\C)[C@H](OC(N)=O)[C@@H](OC)/C=C\C=C(/C)C(=O)NC(=CC1=O)C2=O [geldanamycin]
- IC50 (A2058 cells; Homo sapiens, A2058, 72 h, Star-GA on GA basis): 44 nM
- IC50 (4T1.2 Neu cells; Mus musculus, 4T1.2): 260 nM
- IC50 (B16F10 cells; Mus musculus, B16-F10, 72 h, Star-GA on GA basis): 36 nM
- IC50 (MDA-MB-231 cells; Homo sapiens, MDA-MB-231): 963 nM
- IC50 (HUVEC cells; Homo sapiens, HUVEC, 72 h; read-out: IC50s HUVEC): 0.44 µM

SMILES: N[C@@H](Cc1ccc(N(CCCl)CCCl)cc1)C(=O)O [melphalan]
- IC50 (A2058 cells; Homo sapiens, A2058, 72 h): 30000 nM
- IC50 (B16F10 cells; Mus musculus, B16-F10, 72 h): 103000 nM
- B16F10 tumor response (B16F10 tumors): complete response to treatment
- IC50 (HUVEC cells; Homo sapiens, HUVEC, 72 h, read-out: IC50s HUVEC): 209 µM

SMILES: [N]=O [nitric oxide]
- half-life in vivo [6]: about 5 seconds
